# Measured values from patent US12239654B2, “Compounds and methods for treating neurological and cardiovascular conditions” (Astrocyte Pharmaceuticals, Inc., priority 2016, dated 2025).
# Where two headings read alike, the source gives them in different places.
# Key:
# [1] = In vitro stability of MRS2365 in mouse plasma; assay type: in vitro ADME
# Description: (§1) Whole blood was obtained from male CD-1 mice and human volunteers at Seventh Wave Laboratories (Maryland Heights, MO). Plasma and blood samples were prepared using either EDTA (1 mM) or lithium heparin as anticoagulants.
# Plasma Stability Determination: MRS2365, enalapril and procaine were solubilized in phosphate-buffered saline, pH 7.4. […] Stability incubations were initiated with the addition of MRS2365 (1 μM final concentration). Initial assessments of stability in EDTA-generated plasma utilized incubation timepoints of 0, 10, 30, 60, 120 and 240 minutes (FIGS. 3 and 4). Subsequent studies comparing EDTA- and heparin-generated plasma utilized incubation timepoints of 0, 1, 2.5, 5, 7.5, 10 and 30 minutes (FIG. 7). Additional plasma stability incubations comparing EDTA- and heparin-generated plasma were performed using timepoints of 0, 5, 10, 20, 30, 45, 60 and 90 seconds (FIG. 8). For metabolite scouting analyses, MRS2365 was incubated in heparinized human plasma at a concentration of 100 μM for 10 or 30 minutes (FIG. 9). In all studies, plasma was immediately placed in microtainer tubes, frozen on dry ice and stored at −80° C. until analysis.
# (§2) The following table outlines the LC and MS/MS conditions employed (Table 11).
# The calibration range for MRS2365 plasma and blood concentration standard curves was 5-5000 ng/mL. […]
# [2] = In vitro stability of MRS2365 in human whole blood; assay type: in vitro ADME; settings: EDTA-treated human whole blood, read-out: estimated half-life
# Description: as §1
# Blood Stability Determination: MRS2365, enalapril and procaine were solubilized in phosphate-buffered saline, pH 7.4. […] Stability incubations were initiated with the addition of MRS2365 (1 μM final concentration) (FIGS. 5 and 6). Blood sample aliquots were obtained at 0, 1, 2.5, 7.5, 10 and 30 minutes and placed in microtainer tubes. For metabolite scouting analyses, MRS2365 was incubated in heparinized human whole blood at a concentration of 100 μM for 10 or 30 minutes (FIG. 10). In all studies, plasma was immediately prepared by centrifugation at 4° C., placed in microtainer tubes, frozen on dry ice and stored at −80° C. until analysis.
# as §2
# The calibration range for MRS2365 plasma and blood concentration standard curves was 5-5000 ng/mL. Quality control samples were utilized at concentrations of 32, 160, 800 and 4000 ng/mL.
# [3] = Previous/initial in vivo pharmacokinetic assessments of MRS2365 in mice
# [4] = Pharmacokinetics of MRS4322 following intraperitoneal administration to mice (plasma and brain concentrations, LC-MS/MS); assay type: in vivo; settings: female, mouse, plasma; for Tmax: MRS4322 0.16 mg/kg ip; for half-life: ip, MRS4322 […] ip
# Description: Animals: Female C576BL/6J mice weighing approximately 0.02 kg were used for this study, supplied by the University of Texas Health Sciences Center (San Antonio, TX). All studies were conducted under approved University of Texas Health Sciences Center IACUC protocols.
# Drug Administration: MRS4322 was solubilized in DMSO and then diluted in saline to prepare dosing solution. Final dosing solution concentration of MRS4322 was 100 μM. A 100 μL volume of dosing solution was administered intraperitoneally to each mouse per 20 gram body weight; MRS4322 was administered intraperitoneally at 0.16 mg/kg or 0.5 μmol/kg. Three mice were administered MRS4322 for each sampling timepoint.
# Tissue Sampling: Blood and brain samples were obtained at 0, 0.083, 0.25, 0.5, 1, 2 and 8 hours post-dose. At each timepoint, mice (3/timepoint) were euthanized in a […] chamber. Whole blood was obtained by cardiac puncture into Microtainer tubes containing heparin and immediately centrifuged for preparation of plasma; plasma was stored at −80° C. At each timepoint, whole brain samples were obtained by decapitation, rinsed in ice-cold phosphate-buffered saline and weighed. Brain samples were then immediately flash-frozen in liquid nitrogen and stored at −80° C.
# The following table outlines the LC and MS/MS conditions employed:
# The calibration range for the MRS4322 plasma concentration standard curve was 2.42-242 ng/mL. The calibration range for MRS4322 brain concentrations was 2.41-233 ng/mL.
# For bioanalysis of brain concentrations of MRS4322, brain samples were homogenized in ice-cold phosphate-buffered saline in a 4× dilution. Aliquots of the resulting diluted brain homogenate were treated with acetonitrile and analyzed by LC-MS/MS. Because of the 4× homogenate dilution, the calibration range of the MRS4322 brain standard curve was translated to 9.64-932 ng/gm. In several samples, MRS4322 was detectable but fell below the brain LLOQ of 9.64 ng/gm but were above background; in these cases the final reported brain concentration was extrapolated based on MS peak heights.
# [5] = target: T1, human A3 adenosine receptor (Homo sapiens, UniProt P0DMS8); assay: cAMP accumulation at human A3 receptors expressed in CHO cells; assay type: cell-based
# T1 construct: expressed in transfected cells; whole cells for cAMP
# T1 sequence (P0DMS8 1-318): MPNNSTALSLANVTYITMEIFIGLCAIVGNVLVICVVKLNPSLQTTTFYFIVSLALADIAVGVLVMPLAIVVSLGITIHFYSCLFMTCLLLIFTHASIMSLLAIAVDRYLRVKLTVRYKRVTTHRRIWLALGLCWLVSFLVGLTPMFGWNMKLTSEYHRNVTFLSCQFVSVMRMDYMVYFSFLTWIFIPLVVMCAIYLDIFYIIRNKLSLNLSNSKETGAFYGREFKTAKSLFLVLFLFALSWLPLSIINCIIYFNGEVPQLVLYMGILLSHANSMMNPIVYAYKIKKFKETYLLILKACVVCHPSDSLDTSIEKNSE
# Description: (§3) Additionally cAMP experiments were conducted at CHO cells recombinantly expressing human A3 or mouse A3 adenosine receptors, respectively.
# [6] = target: T2, mouse A3 adenosine receptor (Mus musculus, UniProt Q61618); assay: cAMP accumulation at mouse A3 receptors expressed in CHO cells; assay type: cell-based
# T2 construct: expressed in transfected cells; whole cells for cAMP
# T2 sequence (Q61618 1-319): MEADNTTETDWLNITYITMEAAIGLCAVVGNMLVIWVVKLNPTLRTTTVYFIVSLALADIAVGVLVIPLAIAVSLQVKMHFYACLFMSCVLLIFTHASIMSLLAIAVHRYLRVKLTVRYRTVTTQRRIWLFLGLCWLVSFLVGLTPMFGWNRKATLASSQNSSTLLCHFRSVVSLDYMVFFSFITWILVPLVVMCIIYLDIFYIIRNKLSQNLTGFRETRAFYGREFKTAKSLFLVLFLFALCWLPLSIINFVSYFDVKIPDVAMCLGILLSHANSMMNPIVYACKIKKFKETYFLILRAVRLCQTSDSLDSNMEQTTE
# Description: as §3
Structure (SMILES),"MRS2365 concentrations in heparin-treated plasma ([1]; heparin-treated mouse plasma, 0-90 seconds, even at 0 and 5 seconds)","half-life at 1 μM ([1]; male, CD-1, EDTA-prepared mouse plasma, 1 μM, incubation out to 240 minutes)",half-life at 1 μM [2],"circulating and brain concentrations of MRS2365 ([3]; following intraperitoneal or intravenous administration, previous studies)","clearance in vivo ([3]; mice, heparin as blood anticoagulant for plasma preparation)","Tmax ([4]; C57BL/6J, mean, read-out: Tmax Mean)","half-life ([4]; C57BL/6J, mean, read-out: Half-life Mean (converted))","Tmax ([4]; C576BL/6J, animals A-C, read-out: Tmax)","half-life ([4]; C576BL/6J, animals A-C, read-out: Half-life (converted))","EC50 ([5]; CHO cells stably expressing human A3R, read-out: EC50 ± SEM, Human A3R, cAMP accumulation)","Emax at 100 µM ([5]; read-out: efficacy at 100 μM concentration in % relative to maximal effect of NECA, Human A3R, 100 μM, cAMP accumulation, CHO cells)","EC50 ([6]; CHO cells stably expressing mouse A3R, read-out: EC50 ± SEM, Mouse A3R, cAMP accumulation)","Emax at 100 µM ([6]; read-out: efficacy at 100 μM concentration in % relative to maximal effect of NECA, Mouse A3R, 100 μM, cAMP accumulation, CHO cells)"
CSc1nc(N)c2ncn([C@H]3[C@H](O)[C@H](O)[C@]4(COP(=O)(O)OP(=O)(O)O)C[C@H]34)c2n1 [MRS2365],extremely low,> 240 min,> 240 min,no detectable,rapidly cleared at a rate approximating cardiac output,,,,,,,,
CSc1nc(N)c2ncn([C@H]3[C@H](O)[C@H](O)[C@]4(CO)C[C@H]34)c2n1 [MRS4322],,,,,,4.98 min,18.6 min,4.98 min,18.4 min,3630 ± 370 nM,70%,759 ± 170 nM,72%
